# Where two headings read alike, the source gives them in different places.
# Tests used:
# [1] = test system: H929 human cancer cell lines; experiment: Cellular viability / proliferation (Cell TiterGlo, 72 h); type: cell-based
# Outline: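 Cells were seeded at 1,000 cells/well in medium with 10% FBS and dosed 24 h later with a 2-fold serial dilution of compound (top concentration 50 μM, final DMSO <1%).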
# Mcl-1 = Mcl-1 (Homo sapiens (Human), UniProt Q07820); experiment: TR-FRET binding assay, FITC-Bak peptide and MBP-tagged Mcl-1; conditions: read-out: Ki for Inhibition of Mcl-1 by TR-FRET assay
# Mcl-1, sequence (Q07820 172-327): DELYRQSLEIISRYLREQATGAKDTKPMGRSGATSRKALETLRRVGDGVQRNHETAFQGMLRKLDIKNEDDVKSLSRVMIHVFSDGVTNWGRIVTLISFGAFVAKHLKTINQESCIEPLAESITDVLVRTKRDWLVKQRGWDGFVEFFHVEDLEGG
# Procedure: Compounds are diluted in DMSO in a 16-point, semilog serial dilution scheme. […] The plate was mixed and incubated for 3 hours at room temperature. […] TR-FRET signal is plotted and IC50 and Ki values are calculated in the same manner as the fluorescence polarization anisotropy based competition assays.
# [2] = Homo sapiens, NCI-H929, 72 h, read-out: GI50 on cellular proliferation of H929 human cancer cell lines, H929 cells, 72 h, Cell TiterGlo, 10% FBS
Structure (SMILES),"GI50 [1, 2]",Ki (Mcl-1),"GI50 ([1]; H929 cells, 72 h, Cell TiterGlo, 10% FBS, read-out: GI50 on cellular proliferation of H929 human cancer cell lines)"
"Cc1cc(OCCCc2c3n(c4c(-c5c(C)nn(C)c5C)c(Cl)ccc24)[C@H](C)CN(c2cn(CC(=O)N(C)C)c4ccc(-c5ncn(Cc6ccccn6)n5)cc24)C3=O)cc(C)c1Cl [Example 638, (R)-2-(3-(7-Chloro-10-(3-(4-chloro-3,5-dimethylphenoxy)propyl)-4-methyl-1-oxo-6-(1,3,5-trimethyl-1H-pyrazol-4-yl)-3,4-dihydropyrazino[1,2-a]indol-2(1H)-yl)-5-(1-(pyridin-2-ylmethyl)-1H-1,2,4-triazol-3-yl)-1H-indol-1-yl)-N,N-dimethylacetamide]",600 nM,1.7 nM,
Cc1cc(OCCCc2c3n(c4c(-c5c(C)nn(C)c5C)c(Cl)ccc24)[C@H](C)CN(c2cn(CC4(C)COC4)c4ccc(C(=O)O)cc24)C3=O)cc(C)c1Cl [Example 616],,< 0.2 nM,340 nM
"Cc1cc(OCCCc2c3n(c4c(-c5c(C)nn(C)c5C)c(Cl)ccc24)[C@H](C)CN(c2cn(CC4CCN(C)C4)c4ccc(C(=O)O)cc24)C3=O)cc(C)c1Cl (stereo partly drawn) [Example 534, 3-((R)-7-Chloro-10-(3-(4-chloro-3,5-dimethylphenoxy)propyl)-4-methyl-1-oxo-6-(1,3,5-trimethyl-1H-pyrazol-4-yl)-3,4-dihydropyrazino[1,2-a]indol-2(1H)-yl)-1-((1-methylpyrrolidin-3-yl)methyl)-1H-indole-5-carboxylic acid]",520 nM,< 0.2 nM,
"Cc1cc(N2C[C@@H](C)n3c(c(CCCOc4cc(C)c(Cl)c(C)c4)c4ccc(Cl)c(-c5c(C)n[nH]c5C)c43)C2=O)c2c(c1)cc(C(=O)O)n2Cc1ccccn1 [Example 719, (R)-7-(7-chloro-10-(3-(4-chloro-3,5-dimethylphenoxy)propyl)-6-(3,5-dimethyl-1H-pyrazol-4-yl)-4-methyl-1-oxo-3,4-dihydropyrazino[1,2-a]indol-2(1H)-yl)-5-methyl-1-(pyridin-2-ylmethyl)-1H-indole-2-carboxylic acid]",640 nM,< 0.2 nM,
"Cc1cc(OCCCc2c3n(c4c(-c5c(C)nn(C)c5C)c(Cl)ccc24)[C@H](C)CN(c2c(C)ccc4cc(C(=O)O)n(C)c24)C3=O)cc(C)c1Cl [Example 726, (R)-7-(7-Chloro-10-(3-(4-chloro-3,5-dimethylphenoxy)propyl)-4-methyl-1-oxo-6-(1,3,5-trimethyl-1H-pyrazol-4-yl)-3,4-dihydropyrazino[1,2-a]indol-2(1H)-yl)-1,6-dimethyl-1H-indole-2-carboxylic acid]",260 nM,< 0.2 nM,
"COCCn1cc(N2C[C@@H](C)n3c(c(CCCOc4cc(C)c(Cl)c(C)c4)c4ccc(Cl)c(-c5c(C)nn(C)c5C)c43)C2=O)c2cc(-c3ncn(CC4CC4)n3)ccc21 [Example 589, (R)-7-Chloro-10-(3-(4-chloro-3,5-dimethylphenoxy)propyl)-2-(5-(1-(cyclopropylmethyl)-1H-1,2,4-triazol-3-yl)-1-(2-methoxyethyl)-1H-indol-3-yl)-4-methyl-6-(1,3,5-trimethyl-1H-pyrazol-4-yl)-3,4-dihydropyrazino[1,2-a]indol-1(2H)-one]",1100 nM,1.7 nM,
"Cc1cc(C)nc(Cn2c(C(=O)O)cc3cc(C)cc(N4C[C@@H](C)n5c(c(CCCOc6cc(C)c(Cl)c(C)c6)c6ccc(Cl)c(-c7c(C)nn(C)c7C)c65)C4=O)c32)c1 [Example 599, (R)-7-(7-chloro-10-(3-(4-chloro-3,5-dimethylphenoxy)propyl)-4-methyl-1-oxo-6-(1,3,5-trimethyl-1H-pyrazol-4-yl)-3,4-dihydropyrazino[1,2-a]indol-2(1H)-yl)-1-((4,6-dimethylpyridin-2-yl)methyl)-5-methyl-1H-indole-2-carboxylic acid]",< 200 nM,< 0.2 nM,
"Cc1cc(OCCCc2c3n(c4c(-c5c(C)nn(C)c5C)c(Cl)ccc24)[C@H](C)CN(c2cn(C)c4ccc(-c5nc6c(C)cccn6n5)cc24)C3=O)cc(C)c1Cl [Example 698, (R)-7-Chloro-10-(3-(4-chloro-3,5-dimethylphenoxy)propyl)-4-methyl-2-(1-methyl-5-(8-methyl-[1,2,4]triazolo[1,5-a]pyridin-2-yl)-1H-indol-3-yl)-6-(1,3,5-trimethyl-1H-pyrazol-4-yl)-3,4-dihydropyrazino[1,2-a]indol-1(2H)-one]",620 nM,1.8 nM,

# — patent US11596639B2, “Substituted indole Mcl-1 inhibitors” (Vanderbilt University, priority 2016, dated 2023)
